# US20260306459A1, “INHIBITORS OF NSUN1- AND NSUN2-MEDIATED ACTIVE STRUCTURES” (THE UNIVERSITY OF CHICAGO, priority 2023, published 2026)
# Experiments:
# [1] = test system: eRNAPII (CTD-S2P)-NSUN1 interaction; details: Cheng 2018; cited from earlier work
# [2] = test system: eRNAPII (CTD-S2P)-CTD-S5P interaction; details: Cheng 2018; cited from earlier work
# [3] = test system: eRNAPII (CTD-S2P)-DNMT2 interaction; details: Cheng 2018; cited from earlier work
# [4] = test system: eRNAPII (CTD-S2P)-NSUN3 interaction; details: Cheng 2018; cited from earlier work
# SCAR cells = details: low concentrations of 5-AZA, NSUN1 siRNA; Cheng 2018; cited from earlier work
# BRD4-NSUN1 interaction = details: azacitidine-resistant M2AR cells; Cheng 2018; cited from earlier work
# [5] = test system: BRD4-eRNAPII (CTD-S2P) interaction; details: azacitidine-resistant M2AR cells; Cheng 2018; cited from earlier work
# [6] = biological target: T1, NSUN2-RNA polymerase II (RNAPII) interaction (Homo sapiens, UniProt Q08J23); experiment: PL-RCA-FCM, NSUN2-RNAPII interaction; type: cell-based
# T1 construct: RNAPII CTD2-S2P
# T1 sequence (Q08J23 whole entry): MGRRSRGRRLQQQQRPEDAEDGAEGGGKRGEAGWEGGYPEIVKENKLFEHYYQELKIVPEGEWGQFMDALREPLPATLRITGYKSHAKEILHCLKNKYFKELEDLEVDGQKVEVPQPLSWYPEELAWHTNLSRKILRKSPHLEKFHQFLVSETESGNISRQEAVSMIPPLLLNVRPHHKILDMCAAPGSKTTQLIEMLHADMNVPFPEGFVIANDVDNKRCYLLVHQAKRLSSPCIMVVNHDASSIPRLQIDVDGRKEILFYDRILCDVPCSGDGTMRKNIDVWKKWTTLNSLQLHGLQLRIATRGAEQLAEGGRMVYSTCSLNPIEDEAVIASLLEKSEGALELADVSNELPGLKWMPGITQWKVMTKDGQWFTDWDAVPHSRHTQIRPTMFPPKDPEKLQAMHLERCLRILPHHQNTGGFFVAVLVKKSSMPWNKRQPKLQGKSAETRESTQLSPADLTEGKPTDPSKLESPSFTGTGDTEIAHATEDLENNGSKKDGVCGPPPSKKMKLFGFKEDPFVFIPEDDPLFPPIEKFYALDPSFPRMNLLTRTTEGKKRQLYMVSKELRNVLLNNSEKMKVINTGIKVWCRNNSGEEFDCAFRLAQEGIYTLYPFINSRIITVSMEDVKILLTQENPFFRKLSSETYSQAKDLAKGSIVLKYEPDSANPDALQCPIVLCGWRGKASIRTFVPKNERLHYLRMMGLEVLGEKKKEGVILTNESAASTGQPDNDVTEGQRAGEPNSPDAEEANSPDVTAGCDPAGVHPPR
# Excerpt: (§1) Black=negative control, blue=positive control, no drug=red.
# (§2) The PL-RCA-CM/imaging technique utilized in the inventors previous work (Cheng, J. X. et al., Nature Communications 2018) was suitable to visualize and semi-quantify the NSUN1/2-mediated ACS in cells. However, the previous technique had the disadvantage of having a low sensitivity and low throughput. To overcome this bottleneck, as described herein, the inventors developed NSUN1/2-targeting fluorescence quenching and release (FQR) plate assay (FIG. 6A) and PL-RCA flow cytometry (PL-RCA-FCM) technology (FIG. 6B) for screening of NSUN1/2-targeting drug libraries and quantitatively measuring NSUN1/2-mediated ACS with and without drugs in a lineage-specific and high-throughput manner. The new PL-RCA-FCM detected very strong PL-RCA signals (>2 logs) of the NSUN2-mediated interactions with m5C, RNAPII CTD2-S2P and BRD4, particularly in the venetoclax-resistant leukemia cells (SC) (FIG. 6C), in comparison to the venetoclax-sensitive K1 cells (FIG. 6D).
# NSUN1-c-MYC interaction = NSUN1-c-MYC interaction (Homo sapiens, UniProt P46087); experiment: PL-RCA-FCM, NSUN1-c-MYC interaction; type: cell-based
# Chain of NSUN1-c-MYC interaction (P46087 whole entry): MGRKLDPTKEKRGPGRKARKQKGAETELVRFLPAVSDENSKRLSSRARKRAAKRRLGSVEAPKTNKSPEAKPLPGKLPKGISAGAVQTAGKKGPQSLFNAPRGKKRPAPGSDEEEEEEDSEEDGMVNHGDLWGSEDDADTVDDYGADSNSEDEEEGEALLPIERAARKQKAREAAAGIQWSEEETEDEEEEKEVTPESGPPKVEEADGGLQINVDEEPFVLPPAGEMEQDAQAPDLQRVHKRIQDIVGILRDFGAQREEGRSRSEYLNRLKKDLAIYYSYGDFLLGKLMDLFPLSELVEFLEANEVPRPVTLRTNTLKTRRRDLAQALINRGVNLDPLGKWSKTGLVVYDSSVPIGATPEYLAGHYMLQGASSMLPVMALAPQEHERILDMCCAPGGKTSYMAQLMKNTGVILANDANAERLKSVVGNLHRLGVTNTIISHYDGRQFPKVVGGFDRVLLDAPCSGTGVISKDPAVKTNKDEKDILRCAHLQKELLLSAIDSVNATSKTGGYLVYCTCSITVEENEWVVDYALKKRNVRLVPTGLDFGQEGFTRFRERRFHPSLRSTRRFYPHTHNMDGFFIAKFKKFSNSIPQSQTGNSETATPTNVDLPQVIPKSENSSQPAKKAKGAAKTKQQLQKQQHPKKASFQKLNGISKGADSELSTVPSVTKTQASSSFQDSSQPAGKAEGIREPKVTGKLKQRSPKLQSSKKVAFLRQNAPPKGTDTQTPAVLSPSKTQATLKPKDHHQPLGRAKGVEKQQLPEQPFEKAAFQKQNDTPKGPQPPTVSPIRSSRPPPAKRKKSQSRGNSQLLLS
# Excerpt: (§3) FIGS. 5A-5G display a pipeline of computational design and functional screening of small-molecule compound libraries as well as exemplary characterization and validation of identified positive hit compounds and their targets. FIGS. 5A-5D display an exemplary experimental procedure, beginning with characterization of NSUN1 and/or NSUN2 putative binding modules for interaction with ACS components (FIGS. 5A-5B), a graphic displaying the design of a small molecule library and testing of the putative small molecule NSUN1/2-ACS inhibitors in cell lines (FIG. 5C), characterization of the NSUN1/2-ACS inhibitors interactions with the ACS machinery (FIG. 5D).
# as §1
# (§4) The PL-RCA-CM/imaging technique utilized in the inventors previous work (Cheng, J. X. et al., Nature Communications 2018) was suitable to visualize and semi-quantify the NSUN1/2-mediated ACS in cells. […] To overcome this bottleneck, as described herein, the inventors developed NSUN1/2-targeting fluorescence quenching and release (FQR) plate assay (FIG. 6A) and PL-RCA flow cytometry (PL-RCA-FCM) technology (FIG. 6B) for screening of NSUN1/2-targeting drug libraries and quantitatively measuring NSUN1/2-mediated ACS with and without drugs in a lineage-specific and high-throughput manner. […]
# [7] = test system: leukemia and lung cancer cell lines; experiment: Functional (MTT) screening of NSUN1/2-targeting libraries in leukemia and lung cancer cell lines; type: cell-based, human; details: leukemia and lung cancer cell lines
# Protocol: (§5) FIGS. 11A-11D display scatter plot representations of screening results for AI-designed NSUN1-targeting compound libraries in a venetcoclax-resistant human myeloid leukemia cell line (SC), lung cancer cell line (H82), and venetoclax resistant human […], and a schematic representation of categorization of the results. A human myeloid leukemia cell Line (SC), a lung cancer cell line (H82 or K562) were both incubated at drug concentration 10 μM/μL overnight. MTT assays were performed after 24 hours, and changes were calculated as the percentage of mean absorbance (n=3) versus mean absorbance of drug-free control (n=3). Negative outliers indicated in red ovals. FIG. 11A depicts the results of an NSUN1-targeting drug library, 74 drugs, comparing growth/inhibition in H-82 (Y axis) and SC (X axis) cell lines. FIG. 11B depicts the results of an NSUN2-targeting drug library, 102 drugs, comparing growth/inhibition in H-82 (Y axis) and SC (X axis) cell lines. FIG. 11C depicts the results of an NSUN1-targeting drug library, 74 drugs, comparing growth/inhibition in K562 (Y axis) and SC (X axis) cell lines. FIG. 11D is a schematic representation showing categorization of the results from screens performed as described in FIG. 11, and validation experiments as described in FIG. 12.
# (§6) FIGS. 12A-12J display bar graphs displaying the results of validation experiments for small molecule inhibitors of NSUN1/2-ACS interactions as identified herein. Drug validation of select SC, H82, and/or K562 inhibiting compounds in mouse acute myeloid leukemia cell Line (C1498), SC cells, H82 cells, and/or K562 cells. NSUN1-17 and/or venetoclax acted as controls. Inhibition of cell vitality was identified as dose-dependent for certain small molecules, not merely cytotoxic. In brief, stock with concentration 0.4×10^6 test (e.g., SC, H82, K562, or C1498, as labelled) cells/mL, and 10 μM/μL drug was serially diluted into drug-free cell stock to reach concentrations of 1 μM/μL and […] and split into 100 μL volumes in a 96-well plate. MTT assays performed after 24 hour incubation. Percentages calculated as a difference in mean absorbance of each drug triplicate and mean absorbance in drug-free cell triplicate. Red bars represent standard errors. The concentration of drug represented by each column is from left to right as written in the figure keys. FIGS. 12A-12E provide results from independent repeats for different groupings of small molecules tested against C1498 cells. FIGS. 12F-12G provide results from independent repeats for different groupings of small molecules tested against H82 cells. FIGS. […] provide results from independent repeats for different groupings of small molecules tested against SC cells. FIG. 12J provide results from an assay against K562 cells.
# The inventors then designed a protocol for functional screening of NSUN1/2-targeting supercomputing/AI-derived compound libraries as schematically presented in FIGS. 5A-5G. Briefly, the library compounds were obtained from various chemical companies/vendors and dissolved in DMSO, and then applied to 96-well plates that contained leukemia and/or other cancer cells that were resistant to venetoclax. Both the routine colorimetric assay (MTT assay) and the newly developed NSUN1/2-targeting fluorescence quenching and release (FQR) assay were performed to select bioactive compounds for further quantitative study to confirm that they targetNSUN1/2 and their associated ACS. As described below, the compound libraries screened through cancer cell proliferation and/or NSUN1/2 localization to the ACS successfully identified numerous promising compounds that can inhibit the leukemia cell growth and appear to target the NSUN1-mediated ACS (see Table 2). This success has proven the feasibility and efficacy of the described supercomputing/AI design and functional screening of the NSUN1/2-targeting drug libraries. In some aspects, screening is conducted using drug-resistant cell lines. […]
# [8] = biological target: NSUN2-mitochondrial translation initiation factor 3 (MTIF3) interaction (Homo sapiens, UniProt Q08J23); experiment: PL-RCA-FCM, NSUN2-MTIF3 interaction; type: cell-based
# Chain of NSUN2-mitochondrial translation initiation factor 3 (MTIF3) interaction (Q08J23 whole entry): as the sequence (Q08J23 whole entry) above
# Excerpt: (§7) FIG. 23 provides PL-RCA-FCM results and an associated schematic showing that NSUN2-11 can disrupt the interactions between NSUN2 and mitochondrial RNA polymerase (POLRMT) as well as mitochondrial translation initiation factor 3 (MTIF3). RNA:m5C/NSUN1/2-mediated transcription and translation complexes (RNATTC) mediate multidrug resistance through regulating multi-bioprocesses and multi-organelles' functions in cancer cells.
# as §2
# [9] = biological target: NSUN2-mitochondrial RNA polymerase (POLRMT) interaction (Homo sapiens, UniProt Q08J23); experiment: PL-RCA-FCM, NSUN2-POLRMT interaction; type: cell-based
# Chain of NSUN2-mitochondrial RNA polymerase (POLRMT) interaction (Q08J23 whole entry): as above
# Excerpt: as §7, §2
# [10] = biological target: T2, NSUN1-eRNAPII interaction (Homo sapiens, UniProt P46087); experiment: PL-RCA-FCM, NSUN1-eRNAPII interaction; type: cell-based
# T2 construct: RNAPII
# T2 sequence (P46087 whole entry): as the sequence (P46087 whole entry) above
# Excerpt: as §3, §1, §4
# NSUN2-c-MYC interaction = NSUN2-c-MYC interaction (Homo sapiens, UniProt Q08J23); experiment: PL-RCA-FCM, NSUN2-c-MYC interaction; type: cell-based
# Chain of NSUN2-c-MYC interaction (Q08J23 whole entry): as the sequence (Q08J23 whole entry) above
# Excerpt: as §1, §2
# K1VR cells = experiment: Venetoclax sensitivity of K1VR cells after NSUN1/NSUN2 knockdown; type: cell-based; details: knockdown of either NSUN1 or NSUN2
# H82 cells = experiment: MTT growth inhibition in venetoclax-resistant lung cancer cell line H82; type: cell-based, human; details: human lung cancer cell line NCI-H82
# Excerpt: (§8) FIGS. 8A-8B display a schematic of an 5-ethynyl uridine click chemistry (EC)-coupled flow cytometry (EC-FCM) assay (FIG. 8A), while FIG. 8B depicts the results of an EC-FCM assay showing distinct drug-specific signatures/patterns of nascent RNA synthesis inhibition in the venetoclax sensitive leukemia cell line (K1). The MTT assay measures cell viability and proliferation as well as cytotoxicity of compounds by assessing cellular metabolic activity. The associated measurement can be described as cell viability, cell killing, and/or growth inhibition.
# as §5
# FIGS. 12A-12J display bar graphs displaying the results of validation experiments for small molecule inhibitors of NSUN1/2-ACS interactions as identified herein. Drug validation of select SC, H82, and/or K562 inhibiting compounds in mouse acute myeloid leukemia cell Line (C1498), SC cells, H82 cells, and/or K562 cells. NSUN1-17 and/or venetoclax acted as controls. Inhibition of cell vitality was identified as dose-dependent for certain small molecules, not merely cytotoxic. In brief, stock with concentration 0.4×10^6 test (e.g., SC, H82, K562, or C1498, as labelled) cells/mL, and 10 μM/μL drug was serially diluted into drug-free cell stock to reach concentrations of 1 μM/μL and […] and split into 100 μL volumes in a 96-well plate. MTT assays performed after 24 hour incubation. Percentages calculated as a difference in mean absorbance of each drug triplicate and mean absorbance in drug-free cell triplicate. […]
# SC cells = experiment: MTT growth inhibition in venetoclax-resistant monocytic leukemia cell line SC; type: cell-based, human; details: monocytic leukemia line SC
# Excerpt: as §8, §5, §6
# The inventors then designed a protocol for functional screening of NSUN1/2-targeting supercomputing/AI-derived compound libraries as schematically presented in FIGS. 5A-5G. Briefly, the library compounds were obtained from various chemical companies/vendors and dissolved in DMSO, and then applied to 96-well plates that contained leukemia and/or other cancer cells that were resistant to venetoclax. […]
# MDS/AML = details: cited from earlier work
# C1498 cells = experiment: MTT growth inhibition in myeloid leukemia cell line C1498; type: cell-based, mouse; details: mouse AML cell line
# Excerpt: as §8, §6
# The inventors then designed a protocol for functional screening of NSUN1/2-targeting supercomputing/AI-derived compound libraries as schematically presented in FIGS. 5A-5G. Briefly, the library compounds were obtained from various chemical companies/vendors and dissolved in DMSO, and then applied to 96-well plates that contained leukemia and/or other cancer cells that were resistant to venetoclax. Both the routine colorimetric assay (MTT assay) and the newly developed NSUN1/2-targeting fluorescence quenching and release (FQR) assay were performed to select bioactive compounds for further quantitative study to confirm that they targetNSUN1/2 and their associated ACS. As described below, the compound libraries screened through cancer cell proliferation and/or NSUN1/2 localization to the ACS successfully identified numerous promising compounds that can inhibit the leukemia cell growth and appear to target the NSUN1-mediated ACS (see Table 2). This success has proven the feasibility and efficacy of the described supercomputing/AI design and functional screening of the NSUN1/2-targeting drug libraries. In some aspects, screening is conducted using drug-resistant cell lines. In some aspects, screening is conducted using drug-sensitive cell lines. In some aspects, screening is conducted in leukemia cell lines. In some aspects, screening is conducted in other cancer cell lines besides leukemia (e.g., lung cancer cell lines). In some aspects, NSUN1/2-ACS inhibitors identified are verified in additional cell lines and/or animal models (see e.g., Tables 4-6).
# Kasumi-1 (K1) cells = experiment: Venetoclax sensitivity of Kasumi-1 cells; type: cell-based
# CCRF-CEM cells = experiment: Venetoclax sensitivity of CCRF-CEM cells; type: cell-based
smiles,measurement,setting,value
"Nc1ncn([C@@H]2O[C@H](CO)[C@@H](O)[C@H]2O)c(=O)n1 [5-AZA, 5-azacytidine]",Sensitivity of eRNAPII (CTD-S2P)-NSUN1 interaction,[1],resistant
same,Sensitivity of eRNAPII (CTD-S2P)-CTD-S5P interaction,[2],resistant
same,Sensitivity of eRNAPII (CTD-S2P)-DNMT2 interaction,[3],highly sensitive
same,Sensitivity of eRNAPII (CTD-S2P)-NSUN3 interaction,[4],highly sensitive
same,Response of 5-AZA-resistant SCAR cells after NSUN1 knockdown,SCAR cells,re-sensitized
Cc1sc2c(c1C)C(c1ccc(Cl)cc1)=N[C@@H](CC(=O)OC(C)(C)C)c1nnc(C)n1-2 [JQ1],Sensitivity of BRD4-NSUN1 interaction,BRD4-NSUN1 interaction,insensitive
same,Sensitivity of BRD4-eRNAPII (CTD-S2P) interaction,[5],insensitive
COc1ccc2c(c1)CCc1c(C(=O)NCCc3nc4cc(C)ccc4[nH]3)n[nH]c1-2 [NSUN2-11],Effect on NSUN2-mediated interaction with RNA polymerase II,[6],can disrupt
same,Effect on NSUN1 interaction with c-MYC,NSUN1-c-MYC interaction,can disrupt
same,"Bioactive positive hit, tumor cell growth inhibition and lineage preference",[7],inhibits tumor cell growth in a non-lineage specific manner
same,Effect on NSUN2-MTIF3 interaction,[8],can disrupt
same,Effect on NSUN2-POLRMT interaction,[9],can disrupt
same,Effect on NSUN1 interaction with eRNAPII/RNAPII,[10],can disrupt
same,Effect on NSUN2-mediated interaction with c-MYC,NSUN2-c-MYC interaction,can disrupt
"CC1(C)CCC(CN2CCN(c3ccc(C(=O)NS(=O)(=O)c4ccc(NCC5CCOCC5)c([N+](=O)[O-])c4)c(Oc4cnc5[nH]ccc5c4)c3)CC2)=C(c2ccc(Cl)cc2)C1 [venetoclax, Venetoclax]",Sensitivity of K1VR cells after NSUN1 or NSUN2 siRNA knockdown,K1VR cells,re-sensitize
same,Sensitivity/resistance of NCI-H82 cells,H82 cells,resistant
same,Sensitivity/resistance of SC cells,SC cells,highly resistant
same,AML patients developing venetoclax acquired resistance,"MDS/AML; AML patients, venetoclax-based therapy, acquired resistance",> 60%
same,MDS/AML with primary venetoclax resistance,"MDS/AML; MDS/AML, primary resistance",30-40%
same,Sensitivity/resistance of C1498 cells,C1498 cells,moderate to high resistance
same,Sensitivity/resistance of Kasumi-1 cells,Kasumi-1 (K1) cells,sensitive
same,Sensitivity/resistance of CCRF-CEM cells,CCRF-CEM cells,sensitive
